Legend:
[1] = molecular target: Integrin alpha-IIb/beta-3 (Homo sapiens) (UniProt P05106+P08514); assay: Affinity for purified alpha IIb beta-3 integrin; assay type: protein-complex assay
Homo sapiens = organism: Homo sapiens; assay: Inhibition of human gel filtered platelet aggregation stimulated by ADP ([…]); assay type: functional, organism-based

SMILES | ED50 [1] [nM] | IC50 (Homo sapiens) [nM]
O=C(O)CCNC(=O)c1ccc2c(c1)C(=O)N(CCC1CCNCC1)C2 | 12 | 27
CN(C)c1cccc2c(S(=O)(=O)N[C@@H](CNC(=O)c3ccc4c(c3)C(=O)N(CCC3CCNCC3)C4)C(=O)O)cccc12 | 2.1 | 12
O=C(O)C1=C/C(=N\C(S)=N\CCS(=O)(=O)N[C@@H](CNC(=O)c2ccc3c(c2)C(=O)N(CCC2CCNCC2)C3)C(=O)O)C=CC1=C1c2ccc(O)cc2Oc2cc(O)ccc21 | 1.9 | 31
CCCCS(=O)(=O)N[C@@H](Cc1ccc(OCCCCC2CCNCC2)cc1)C(=O)O [TIROFIBAN] | 0.9 | 18
